Literature values, collected in patent US11498743B2, “Cardboard container for active packaging of fresh fruit and vegetables and production method of same” (Universidad Politecnica de Cartagena, priority 2016, dated 2022).

| Half-life in 1M HCl at 60° C. | Structure (SMILES) |
| --- | --- |
| 6.2 h | OC[C@H]1O[C@@H]2O[C@H]3[C@H](O)[C@@H](O)[C@@H](O[C@H]4[C@H](O)[C@@H](O)[C@@H](O[C@H]5[C@H](O)[C@@H](O)[C@@H](O[C@H]6[C@H](O)[C@@H](O)[C@@H](O[C@H]7[C@H](O)[C@@H](O)[C@@H](O[C@H]1[C@H](O)[C@H]2O)O[C@@H]7CO)O[C@@H]6CO)O[C@@H]5CO)O[C@@H]4CO)O[C@@H]3CO [α-CD, alpha-cyclodextrin] |
| 5.4 h | OC[C@H]1O[C@@H]2O[C@H]3[C@H](O)[C@@H](O)[C@@H](O[C@H]4[C@H](O)[C@@H](O)[C@@H](O[C@H]5[C@H](O)[C@@H](O)[C@@H](O[C@H]6[C@H](O)[C@@H](O)[C@@H](O[C@H]7[C@H](O)[C@@H](O)[C@@H](O[C@H]8[C@H](O)[C@@H](O)[C@@H](O[C@H]1[C@H](O)[C@H]2O)O[C@@H]8CO)O[C@@H]7CO)O[C@@H]6CO)O[C@@H]5CO)O[C@@H]4CO)O[C@@H]3CO [β-CD, beta-cyclodextrin] |
| 3.0 h | OC[C@H]1O[C@@H]2O[C@H]3[C@H](O)[C@@H](O)[C@@H](O[C@H]4[C@H](O)[C@@H](O)[C@@H](O[C@H]5[C@H](O)[C@@H](O)[C@@H](O[C@H]6[C@H](O)[C@@H](O)[C@@H](O[C@H]7[C@H](O)[C@@H](O)[C@@H](O[C@H]8[C@H](O)[C@@H](O)[C@@H](O[C@H]9[C@H](O)[C@@H](O)[C@@H](O[C@H]1[C@H](O)[C@H]2O)O[C@@H]9CO)O[C@@H]8CO)O[C@@H]7CO)O[C@@H]6CO)O[C@@H]5CO)O[C@@H]4CO)O[C@@H]3CO [γ-CD, gamma-cyclodextrin] |
